Experimental data: US11065226B2, “Combination comprising EP4 antagonist and immune checkpoint inhibitor” (ONO PHARMACEUTICAL CO., LTD., priority 2016, dated 2021)
One block for each molecule: values may come before it.

Assays:
rat EP4 receptor = biological target: T1, rat EP4 receptor (Rattus norvegicus, UniProt P43114); assay: EP4 antagonistic activity measurement using prostanoid receptor subtype-expressing cells (cAMP, PGE2 10 nM); format: cell-based; details: CHO cells expressing rat EP4 receptor; inhibition of cAMP production by PGE2 10 nM; 30 minutes at room temperature
T1 construct: expressed in transfected cells; host or cells: CHO cells
Description: CHO cells expressing rat EP4 receptor subtypes were prepared according to the methods of Nishigaki et al. (Non-Patent Document 4) and used for experiment. Cultured subconfluent cells were detached and suspended in an assay medium (MEM containing 1 mmol/L IBMX, 1% HSA) in a concentration of 1×10^6 cells/mL. To start the reaction, PGE2 was added to the cell suspension (25 μL) in a final concentration of 10 nmol/L, either alone or as a 25-μL PGE2 solution containing a test compound. After 30 minutes of reaction at room temperature, the amount of cAMP in the cells was quantified according to the method in the descriptions of the cAMP assay kit (CISBIO).
The antagonistic effect (IC50 value) of the test compound was calculated as a value that represents an inhibition rate against a reaction with PGE2 alone at 10 nM, a concentration that produces a submaximal cAMP producing effect.

[1] = system: mouse colorectal cancer cell line MC38; assay: Combination therapy with Example 2-2 and anti-mouse PD-1 antibody in allograft model of MC38; format: in vivo; details: female C57BL/6 mice, Example 2-2 3 mg/kg orally twice a day day 8 to 24, anti-mouse PD-1 antibody i.p. 20 mg/kg day 8, 10 mg/kg day 14 and 20
Description: (§1) The effect of the combination therapy with the compound of Example 2-2 and an anti-mouse PD-1 antibody was evaluated in an allograft model of a mouse colorectal cancer cell line, MC38 (Cancer Res. (1975), 35(9), p 2434-9). The MC38 cells were cultured in a DMEM medium containing 10 vol % FBS, 100 units/mL penicillin, and 100 μg/mL streptomycin in a CO2 incubator. On the day of transplantation, the culture supernatant was removed, and then the MC38 cells were washed with PBS and collected. The collected MC38 cells were suspended in PBS and used as transplant cells. Under anesthesia, 1,000,000 transplant cells were subcutaneously transplanted into the right lateral abdominal regions of female C57BL/6 mice. On day 8 after the transplantation, the mice were divided into four groups of a vehicle group, an Example 2-2 compound-single therapy group, an anti-mouse PD-1 antibody-single therapy group, and a combination therapy group (the compound of Example 2-2 and the anti-mouse PD-1 antibody), each containing 10 individuals. […] The tumor volumes (mm^3) were calculated by the following equation from the tumor lengths along the minor axis and the major axis which were measured using a digital caliper. […]

[2] = system: mouse fibrosarcoma cell line SalN; assay: Combination therapy with Example 2-13 and anti-mouse PD-1 antibody in allograft model of SalN; format: in vivo; details: female A/J mice, Example 2-13 5 mg/kg orally twice a day day 7 to 21, anti-mouse PD-1 antibody i.p. 3 mg/kg day 7, 10, 14, 17
Description: The effect of the combination therapy with the compound of Example 2-13 and an anti-mouse PD-1 antibody was evaluated in an allograft model of a mouse fibrosarcoma cell line, SalN (Cancer Res. (2012), 72(4), p 917-27). The SalN cells were cultured using a DMEM medium containing 10 vol % FBS, 2 mmol/L Glutamax, 100 units/mL penicillin, and 100 μg/mL streptomycin in a CO2 incubator. On the day of transplantation, the culture supernatant was removed, and then the SalN cells were washed with PBS and collected. The collected SalN cells were suspended in PBS and used as transplant cells. Under anesthesia, 2,000,000 transplant cells were subcutaneously transplanted into the right lateral abdominal regions of female A/J mice. On day 7 after the transplantation, the mice were divided into four groups of a vehicle group, an Example 2-13 compound-single therapy group, an anti-mouse PD-1 antibody-single therapy group, and a combination therapy group (the compound of Example 2-13 and the anti-mouse PD-1 antibody), each containing 15 individuals. […] The tumor volumes (mm^3) were calculated by the following equation from the tumor lengths along the minor axis and the major axis and the tumor height which were measured using a digital caliper. […]

[3] = system: mouse colorectal cancer cell line MC38; assay: Combination therapy with Example 2-13 and anti-mouse PD-1 antibody in allograft model of MC38; format: in vivo; details: female C57BL/6 mice
Description: as §1, with “Example 2-13” for “Example 2-2”, “and 100}μg/mL” for “and 100 μg/mL”, “anesthesia, 200,000” for “anesthesia, 1,000,000”, “day 7” for “day 8”

[4] = system: mouse colorectal cancer cell line CT26; assay: Combination therapy with Example 2-13 and anti-mouse PD-1 antibody in allograft model of CT26; format: in vivo; details: female BALB/c mice, Example 2-13 5 mg/kg orally twice a day day 7 to 21, anti-mouse PD-1 antibody i.p. 3 mg/kg day 7, 10, 14, 17
Description: (§2) The effect of the combination therapy with the compound of Example 2-13 and an anti-mouse PD-1 antibody was evaluated in an allograft model of a mouse colorectal cancer cell line, CT26 (Cancer Res. (2013), 73(12), p3591-603). The CT26 cells were cultured using a RPMI medium containing 10 vol % FBS, 2 mmol/L Glutamax, 100 units/mL penicillin, and 100 μg/mL streptomycin in a CO2 incubator. On the day of transplantation, the culture supernatant was removed, and then the CT26 cells were washed with PBS and collected. The collected CT26 cells were suspended in PBS and used as transplant cells. Under anesthesia, 1,000,000 transplant cells were subcutaneously transplanted into the right lateral abdominal regions of female BALB/c mice. On day 7 after the transplantation, the mice were divided into four groups of a vehicle group, an Example 2-13 compound-single therapy group, an anti-mouse PD-1 antibody-single therapy group, and a combination therapy group (the compound of Example 2-13 and the anti-mouse PD-1 antibody), each containing 15 to 18 individuals. […] The tumor volumes (mm^3) were calculated by the following equation from the tumor lengths along the minor axis and the major axis and the tumor height which were measured using a digital caliper. […]

[5] = system: mouse colorectal cancer cell line MC38; assay: Combination therapy with Example 2-13 and anti-mouse CTLA-4 antibody in allograft model of MC38; format: in vivo; details: female C57BL/6 mice, Example 2-13 5 mg/kg orally twice a day day 7 to 28, anti-mouse CTLA-4 antibody i.p. 10 mg/kg day 7, 10, 14, 17
Description: as §2, with “CTLA-4” for “PD-1”, “MC38.” for “CT26 (Cancer Res. (2013), 73(12), p3591-603).”, “MC38” for “CT26”, “DMEM” for “RPMI”, “C57BL/6” for “BALB/c”, “15” for “15 to 18”

T1 sequence (P43114 whole entry): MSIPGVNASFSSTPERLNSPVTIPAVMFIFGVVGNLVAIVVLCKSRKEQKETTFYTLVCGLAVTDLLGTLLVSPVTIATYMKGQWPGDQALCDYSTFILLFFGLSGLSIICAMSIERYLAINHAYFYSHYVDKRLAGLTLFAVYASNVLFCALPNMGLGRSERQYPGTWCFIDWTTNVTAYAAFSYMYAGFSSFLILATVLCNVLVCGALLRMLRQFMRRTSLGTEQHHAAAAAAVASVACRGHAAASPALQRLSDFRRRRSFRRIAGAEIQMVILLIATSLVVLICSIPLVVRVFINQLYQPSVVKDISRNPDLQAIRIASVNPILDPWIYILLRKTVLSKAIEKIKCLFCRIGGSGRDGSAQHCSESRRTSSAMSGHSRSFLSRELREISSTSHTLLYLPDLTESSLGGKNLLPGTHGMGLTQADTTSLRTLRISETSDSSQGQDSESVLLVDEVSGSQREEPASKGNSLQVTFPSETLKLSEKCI

IC50 (rat EP4 receptor): 1.3 nM
Compound: Cn1cc(NC(=O)c2ccc3c(c2)[C@]2(CCO3)C[C@H]2C(=O)Nc2cc(C#N)ccc2CCCC(=O)O)cn1 [Example 2-5]

Compound: COCCNC(=O)c1ccc2c(c1)[C@]1(CCO2)C[C@H]1C(=O)Nc1cc(C#N)ccc1CCCC(=O)O [Example 2-2]
tumor growth (tumor volume, FIG. 2) [1]: inhibited the tumor growth alone

Compound: CC(C)NC(=O)c1ccc2c(c1)[C@]1(CCO2)C[C@H]1C(=O)Nc1cc(C#N)ccc1CCCC(=O)O [Example 2-13, 4-[4-cyano-2-({[(2′R,4S)-6-(isopropylcarbamoyl)-2,3-dihydrospiro[chromene-4,1′-cyclopropan]-2′-yl]carbonyl}amino)phenyl]butanoic acid]
tumor growth (tumor volume, FIG. 4) [2]: inhibited the tumor growth alone | Cases of Disappearance of Tumor/Cases ([3]; Example 2-13 3 mg/kg orally twice a day to day 28, anti-mouse PD-1 antibody i.p. 20 mg/kg day 7, 10 mg/kg day 13 and 19): 0/10 | tumor growth (tumor volume, FIG. 1) ([3]; Example 2-13 3 mg/kg orally, anti-mouse PD-1 antibody i.p. 20 mg/kg then 10 mg/kg): inhibited the tumor growth alone | tumor growth (tumor volume, FIG. 5) [4]: inhibited the tumor growth alone | tumor growth (tumor volume, FIG. 3) [5]: inhibited the tumor growth alone
